The target in the test is T1, Prostaglandin D2 receptor (Homo sapiens, UniProt Q13258).
T1 sequence (Q13258 whole entry): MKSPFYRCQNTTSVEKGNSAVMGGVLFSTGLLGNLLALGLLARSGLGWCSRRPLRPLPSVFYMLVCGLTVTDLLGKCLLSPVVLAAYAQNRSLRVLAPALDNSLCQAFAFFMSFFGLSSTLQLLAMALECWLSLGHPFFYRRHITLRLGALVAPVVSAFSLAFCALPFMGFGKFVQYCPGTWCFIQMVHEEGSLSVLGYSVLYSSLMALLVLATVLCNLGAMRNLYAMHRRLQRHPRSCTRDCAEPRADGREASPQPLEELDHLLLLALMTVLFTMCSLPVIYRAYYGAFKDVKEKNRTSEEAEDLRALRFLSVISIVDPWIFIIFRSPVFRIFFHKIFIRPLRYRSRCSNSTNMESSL
Description: Antagonist activity at prostaglandin D2 receptor in human LS174T cells assessed as inhibition of PGD2-induced cAMP accumulation after 15 mins by scintillation proximity assay. It is filed as functional, cell-based. (Changes in cAMP serve as a functional read-out for many G protein-coupled receptors.)

The text below walks through data of ChEMBL document CHEMBL1641378, “Understanding DP receptor antagonism using a CoMSIA approach” (Bioorg Med Chem Lett, 2011).

As usually defined, the IC50 is the concentration needed to halve the response being measured. For `COc1ccc(CCNc2cc(-c3ccc(F)c(/C=N/O)c3)nc(OC)n2)cc1`, the half-inhibitory concentration (IC50) was 4.47 nM.
